Assay results from patent US20250263440A1, “CD38-BINDING AGENTS AND USES THEREOF” (PeptiDream Inc., priority 2019, published 2025).
Starred links: 1 amine or outer side, 2 acyl side, 3 side chain; linkers in the order of their positions; H or OH if unused. Positions of bridges follow the written chain, without caps; N, C: chain ends. Non-standard residues stand in square brackets, D forms with d. Residues, ends and D or L forms follow the SMILES beside them. *: point of attachment. Trp(6-aza) = N[C@@H](Cc1c[nH]c2cnccc12)C(=O)O; Bip = N[C@@H](Cc1ccc(-c2ccccc2)cc1)C(=O)O; Arg(Me2a) = CN(C)C(=N)NCCC[C@H](N)C(=O)O; Nle(6-Ph) = N[C@@H](CCCCc1ccccc1)C(=O)O; Arg(Me2s) = CN=C(NC)NCCC[C@H](N)C(=O)O; Met(O2) = CS(=O)(=O)CC[C@H](N)C(=O)O; X4 = CCCCCCC[C@H](N[*:1])C(=O)[*:2]; hCit = NC(=O)NCCCC[C@H](N)C(=O)O; Ahp(2) = CCCCC[C@H](N)C(=O)O; hSer = N[C@@H](CCO)C(=O)O; X1 = COCCOCCOCCOCCC(=O)*

Target: His-tagged CD38 (Homo sapiens, UniProt P28907)
Assay: SPR assay (Biacore S200, Sensor Chip NTA, single-cycle kinetics) of SEQ ID NO.1 variants against His-tagged CD38
Assay type: binding
Conditions: for kon / koff: SPR Biacore S200, NTA chip, His-tagged CD38; for kon: read-out: Ka (association rate constant); for koff: read-out: Kd (dissociation rate constant); for Kd: SPR Biacore S200, His-tagged CD38, calculated from ka and kd
Method: SPR assay was performed using Biacore S200 (Cytiva: Former GE Healthcare).
After the equilibration of Series S Sensor Chip NTA (produced by Cytiva: Former GE Healthcare) with Running Buffer (10 mM HEPES pH7.4, 150 mM NaCl, 0.05% Tween 20), followed by injection of 350 mM EDTA at a flow rate of 10 L/min for 60 seconds and […] NiCl2 at a flow rate of 10 L/min for 60 seconds, then 3 mM EDTA at a flow rate of 10 L/min for 120 seconds, sequently, to wash the sensor chip.
EDC/NHS mixture was injected at a flow rate of […] for 7 minutes to thereby activate the functional groups on sensor chip. His-tagged CD38 in Running Buffer (10 mM HEPES pH7.4, 150 mM NaCl, 0.05% Tween 20) was injected immobilized to at a flow rate of […]. For 7 minutes to immobilize the CD38 on the substrate surfaces of the sensor chip. Then Ethanolamine was injected at a flow rate of […] for 7 minutes.
1.0 M Ethanolamine(aq.) was injected at a flow rate of 10 L/min for 420 seconds for capping. 10 mM peptides (which were synthesised described above) in DMSO were diluted to obtain 10 uM with Running Buffer, and prepared 100 nM, 50 nM, 25 nM, 10 nM, 5 nM of each peptide's solutions (Peptide Samples).
Using these Peptide Samples, kinetics of peptides against His-tagged CD38 was measured. The method adopted for sample measurement was a single-cycle kinetics method. The analysis was conducted using the evaluation software 1.1 provided with Biacore S200. A DMSO correction curve obtained by solvent correction measurements was applied for the analysis. Kinetics fitting was done on the difference data obtained by subtracting the baseline data from sample measurement data.
KD values were calculated based on the association rate constant (ka) and dissociation rate constant (kd).

kon | koff | Kd | SMILES
471000 M⁻¹ s⁻¹ | 0.00223 s⁻¹ | – | CCCCC[C@@H]1NC(=O)[C@H](CCCNC(=N)N)NC(=O)[C@H](C)NC(=O)CSC[C@@H](C(N)=O)NC(=O)[C@H](CC(=O)O)NC(=O)[C@H](CCCCC)NC(=O)[C@H](Cc2ccc(-c3ccccc3)cc2)NC(=O)[C@H](CC(C)C)NC(=O)[C@H](C(C)C)NC(=O)[C@H](CCC(=O)O)NC(=O)[C@H](CC(=O)O)NC(=O)[C@H](Cc2c[nH]cn2)NC(=O)[C@H](Cc2ccc(O)cc2)NC1=O [compound 10] ({CH2CO}-AR[Ahp(2)]YHDEVL[Bip][Ahp(2)]DC-NH2; thioether N-13 (inferred); N-terminus and C-terminus assumed)
820000 M⁻¹ s⁻¹ | 0.0027 s⁻¹ | – | CCCCCCC[C@@H]1NC(=O)[C@H](Cc2ccc(-c3ccccc3)cc2)NC(=O)[C@H](CC(C)C)NC(=O)[C@H](C(C)C)NC(=O)[C@H](CCC(=O)O)NC(=O)[C@H](CC(=O)O)NC(=O)[C@H](Cc2c[nH]cn2)NC(=O)[C@H](Cc2ccc(O)cc2)NC(=O)[C@H](CCCCC)NC(=O)[C@H](CCCNC(=N)N)NC(=O)[C@H](C)NC(=O)CSC[C@@H](C(N)=O)NC(=O)[C@H](CC(=O)O)NC1=O [compound 23] ({CH2CO}-AR[Ahp(2)]YHDEVL[Bip][X4]DC-NH2; thioether N-13)
1.1e+06 M⁻¹ s⁻¹ | 0.024 s⁻¹ | – | CCCCC[C@@H]1NC(=O)[C@H](CCCNC(=N)N)NC(=O)[C@H](C)NC(=O)CSC[C@@H](C(N)=O)NC(=O)[C@H](CC(=O)O)NC(=O)[C@H](CCCCC)NC(=O)[C@H](Cc2ccc(-c3ccccc3)cc2)NC(=O)[C@H](CCS(C)(=O)=O)NC(=O)[C@H](C(C)C)NC(=O)[C@H](CCC(N)=O)NC(=O)[C@H](CC(=O)O)NC(=O)[C@H](Cc2c[nH]cn2)NC(=O)[C@H](Cc2ccc(O)cc2)NC1=O [compound 13] ({CH2CO}-AR[Ahp(2)]YHDQV[Met(O2)][Bip][Ahp(2)]DC-NH2; thioether N-13)
250000 M⁻¹ s⁻¹ | 0.0014 s⁻¹ | 5.6 nM | CCCCC[C@@H]1NC(=O)[C@H](CCCNC(=N)N(C)C)NC(=O)[C@H](C)NC(=O)CSC[C@@H](C(N)=O)NC(=O)[C@H](CC(=O)O)NC(=O)[C@H](CCCCc2ccccc2)NC(=O)[C@H](Cc2ccc(-c3ccccc3)cc2)NC(=O)[C@H](CC(C)C)NC(=O)[C@H](C(C)C)NC(=O)[C@H](CCC(=O)O)NC(=O)[C@H](CC(=O)O)NC(=O)[C@H](Cc2c[nH]cn2)NC(=O)[C@H](Cc2ccc(O)cc2)NC1=O [compound 32] ({CH2CO}-A[Arg(Me2a)][Ahp(2)]YHDEVL[Bip][Nle(6-Ph)]DC-NH2; thioether N-13)
1.4e+06 M⁻¹ s⁻¹ | 0.013 s⁻¹ | 9.42 nM | CCCCC[C@@H]1NC(=O)[C@H](CCCNC(=N)N)NC(=O)[C@H](C)NC(=O)CSC[C@@H](C(N)=O)NC(=O)[C@H](CC(=O)O)NC(=O)[C@H](CCCCC)NC(=O)[C@H](Cc2ccc(-c3ccccc3)cc2)NC(=O)[C@H](CCS(C)(=O)=O)NC(=O)[C@H](C(C)C)NC(=O)[C@H](CCCNC(=N)N)NC(=O)[C@H](CC(=O)O)NC(=O)[C@H](Cc2c[nH]cn2)NC(=O)[C@H](Cc2ccc(O)cc2)NC1=O [compound 15] ({CH2CO}-AR[Ahp(2)]YHDRV[Met(O2)][Bip][Ahp(2)]DC-NH2; thioether N-13)
480000 M⁻¹ s⁻¹ | 0.0012 s⁻¹ | 2.6 nM | CCCCC[C@@H]1NC(=O)[C@H](CCCNC(=NC)NC)NC(=O)[C@H](C)NC(=O)CSC[C@@H](C(N)=O)NC(=O)[C@H](CC(=O)O)NC(=O)[C@H](CCCCc2ccccc2)NC(=O)[C@H](Cc2ccc(-c3ccccc3)cc2)NC(=O)[C@H](CC(C)C)NC(=O)[C@H](C(C)C)NC(=O)[C@H](CCC(=O)O)NC(=O)[C@H](CC(=O)O)NC(=O)[C@H](Cc2c[nH]cn2)NC(=O)[C@H](Cc2ccc(O)cc2)NC1=O [compound 31] ({CH2CO}-A[Arg(Me2s)][Ahp(2)]YHDEVL[Bip][Nle(6-Ph)]DC-NH2; thioether N-13)
220000 M⁻¹ s⁻¹ | 0.0015 s⁻¹ | 6.7 nM | CCCCC[C@@H]1NC(=O)[C@H](CCCCNC(N)=O)NC(=O)[C@H](C)NC(=O)CSC[C@@H](C(N)=O)NC(=O)[C@H](CC(=O)O)NC(=O)[C@H](CCCCc2ccccc2)NC(=O)[C@H](Cc2ccc(-c3ccccc3)cc2)NC(=O)[C@H](CC(C)C)NC(=O)[C@H](C(C)C)NC(=O)[C@H](CCC(=O)O)NC(=O)[C@H](CC(=O)O)NC(=O)[C@H](Cc2c[nH]cn2)NC(=O)[C@H](Cc2ccc(O)cc2)NC1=O [compound 33] ({CH2CO}-A[hCit][Ahp(2)]YHDEVL[Bip][Nle(6-Ph)]DC-NH2; thioether N-13)
631000 M⁻¹ s⁻¹ | 0.00186 s⁻¹ | 2.94 nM | CCCCC[C@@H]1NC(=O)[C@H](CCCNC(=N)N)NC(=O)[C@H](C)NC(=O)CSC[C@@H](C(N)=O)NC(=O)[C@H](CC(=O)O)NC(=O)[C@H](CCCCC)NC(=O)[C@H](Cc2ccc(-c3ccccc3)cc2)NC(=O)[C@H](CC(C)C)NC(=O)[C@H](C(C)C)NC(=O)[C@H](CCS(C)(=O)=O)NC(=O)[C@H](CC(=O)O)NC(=O)[C@H](Cc2c[nH]cn2)NC(=O)[C@H](Cc2ccc(O)cc2)NC1=O [compound 6] ({CH2CO}-AR[Ahp(2)]YHD[Met(O2)]VL[Bip][Ahp(2)]DC-NH2; thioether N-13)
533000 M⁻¹ s⁻¹ | 0.0023 s⁻¹ | – | CCCCC[C@@H]1NC(=O)[C@H](CCCNC(=N)N)NC(=O)[C@H](C)NC(=O)CSC[C@@H](C(N)=O)NC(=O)[C@H](CC(=O)O)NC(=O)[C@H](CCCCC)NC(=O)[C@H](Cc2ccc(-c3ccccc3)cc2)NC(=O)[C@H](CC(C)C)NC(=O)[C@H](C(C)C)NC(=O)[C@H](CCC(N)=O)NC(=O)[C@H](CC(=O)O)NC(=O)[C@H](Cc2c[nH]cn2)NC(=O)[C@H](Cc2ccc(O)cc2)NC1=O [compound 4] ({CH2CO}-AR[Ahp(2)]YHDQVL[Bip][Ahp(2)]DC-NH2; thioether N-13 (inferred); N-terminus and C-terminus assumed)
220000 M⁻¹ s⁻¹ | 0.006 s⁻¹ | 27.7 nM | CCCCC[C@@H]1NC(=O)[C@H](CCCCNC(=O)CCOCCOCCOCCOC)NC(=O)[C@H](C)NC(=O)CSC[C@@H](C(N)=O)NC(=O)[C@H](CC(=O)O)NC(=O)[C@H](CCCCC)NC(=O)[C@H](Cc2ccc(-c3ccccc3)cc2)NC(=O)[C@H](CC(C)C)NC(=O)[C@H](C(C)C)NC(=O)[C@H](CCC(=O)O)NC(=O)[C@H](CC(=O)O)NC(=O)[C@H](Cc2c[nH]cn2)NC(=O)[C@H](Cc2ccc(O)cc2)NC1=O [compound 18] ({CH2CO}-AK(X1)[Ahp(2)]YHDEVL[Bip][Ahp(2)]DC-NH2; thioether N-13)
664000 M⁻¹ s⁻¹ | 0.00627 s⁻¹ | – | CCCCC[C@@H]1NC(=O)[C@H](CCCNC(=N)N)NC(=O)[C@H](C)NC(=O)CSC[C@@H](C(N)=O)NC(=O)[C@H](CC(=O)O)NC(=O)[C@H](CCCCC)NC(=O)[C@H](Cc2ccc(-c3ccccc3)cc2)NC(=O)[C@H](CCS(C)(=O)=O)NC(=O)[C@H](C(C)C)NC(=O)CNC(=O)[C@H](CC(=O)O)NC(=O)[C@H](Cc2c[nH]cn2)NC(=O)[C@H](Cc2ccc(O)cc2)NC1=O [compound 9] ({CH2CO}-AR[Ahp(2)]YHDGV[Met(O2)][Bip][Ahp(2)]DC-NH2; thioether N-13 (inferred); N-terminus and C-terminus assumed)
790000 M⁻¹ s⁻¹ | 0.0306 s⁻¹ | 38.8 nM | CCCCC[C@@H]1NC(=O)[C@H](CCCNC(=N)N)NC(=O)[C@H](C)NC(=O)CSC[C@@H](C(N)=O)NC(=O)[C@H](CC(=O)O)NC(=O)[C@H](CCCCC)NC(=O)[C@H](Cc2ccc(-c3ccccc3)cc2)NC(=O)[C@H](CCO)NC(=O)[C@H](C(C)C)NC(=O)CNC(=O)[C@H](CC(=O)O)NC(=O)[C@H](Cc2c[nH]cn2)NC(=O)[C@H](Cc2ccc(O)cc2)NC1=O [compound 8] ({CH2CO}-AR[Ahp(2)]YHDGV[hSer][Bip][Ahp(2)]DC-NH2; thioether N-13)
819000 M⁻¹ s⁻¹ | 0.0535 s⁻¹ | – | CCCCC[C@@H]1NC(=O)[C@H](CCCNC(=N)N)NC(=O)[C@H](C)NC(=O)CSC[C@@H](C(N)=O)NC(=O)[C@H](CC(=O)O)NC(=O)[C@H](CCCCC)NC(=O)[C@H](Cc2ccc(-c3ccccc3)cc2)NC(=O)[C@H]([C@@H](C)O)NC(=O)[C@H](C(C)C)NC(=O)CNC(=O)[C@H](CC(=O)O)NC(=O)[C@H](Cc2c[nH]cn2)NC(=O)[C@H](Cc2ccc(O)cc2)NC1=O [compound 7] ({CH2CO}-AR[Ahp(2)]YHDGVT[Bip][Ahp(2)]DC-NH2; thioether N-13)
790000 M⁻¹ s⁻¹ | 0.0087 s⁻¹ | 10.9 nM | CCCCC[C@@H]1NC(=O)[C@H](CCCNC(=N)N)NC(=O)[C@H](C)NC(=O)CSC[C@@H](C(N)=O)NC(=O)[C@H](CC(=O)O)NC(=O)[C@H](CCCCC)NC(=O)[C@H](Cc2ccc(-c3ccccc3)cc2)NC(=O)[C@H](CC(C)C)NC(=O)[C@H](C(C)C)NC(=O)[C@H](CCC(=O)O)NC(=O)[C@H](CC(=O)O)NC(=O)[C@H](Cc2c[nH]c3cnccc23)NC(=O)[C@H](Cc2ccc(O)cc2)NC1=O [compound 22] ({CH2CO}-AR[Ahp(2)]Y[Trp(6-aza)]DEVL[Bip][Ahp(2)]DC-NH2; thioether N-13)
